Measurements published in ChEMBL document CHEMBL3046516, “Efficacy of neem limonoids on Cnaphalocrocis medinalis (Guenee) (Lepidoptera: Pyralidae) the rice leaffolder” (2005).

How the values were obtained:
Cnaphalocrocis medinalis [1] = test: Antifeedant activity against 4 hr starved fifth-instar larval stage of Cnaphalocrocis medinalis infested compound-treated rice leaves assessed as approximate digestibility at 1 ppm measured every 24 hr for 4 days by gravimetric method (reference value: 44.81 +/- 4.12%); format: functional
Cnaphalocrocis medinalis [2] = test: Antifeedant activity against 4 hr starved fifth-instar larval stage of Cnaphalocrocis medinalis infested compound-treated rice leaves assessed as relative consumption rate at 1 ppm measured every 24 hr for 4 days by gravimetric method (reference value: 0.524 +/- 0.03 mg/mg/day); format: functional
Cnaphalocrocis medinalis [3] = test: Antifeedant activity against 4 hr starved fifth-instar larval stage of Cnaphalocrocis medinalis infested compound-treated rice leaves assessed as efficacy of conversion of digested food at 1 ppm measured every 24 hr for 4 days by gravimetric method (reference value: 46.45 +/- 4.12%); format: functional
Cnaphalocrocis medinalis [4] = test: Antifeedant activity against 4 hr starved fifth-instar larval stage of Cnaphalocrocis medinalis infested compound-treated rice leaves assessed as efficacy of conversion of ingested food at 1 ppm measured every 24 hr for 4 days by gravimetric method (reference value: 20.81 +/- 1.58%); format: functional
Cnaphalocrocis medinalis [5] = test: Antifeedant activity against 4 hr starved fifth-instar larval stage of Cnaphalocrocis medinalis infested compound-treated rice leaves assessed as relative growth rate at 1 ppm measured every 24 hr for 4 days by gravimetric method (reference value: 0.524 +/- 0.03 mg/mg/day); format: functional
Cnaphalocrocis medinalis [6] = test: Antifeedant activity against 4 hr starved fifth-instar larval stage of Cnaphalocrocis medinalis infested compound-treated rice leaves assessed as consumption index at 1 ppm measured every 24 hr for 4 days by gravimetric method (reference value: 2.52 +/- 0.15 mg/mg/day); format: functional
Cnaphalocrocis medinalis [7] = test: Antifeedant activity against 4 hr starved fifth-instar larval stage of Cnaphalocrocis medinalis infested compound-treated rice leaves assessed as reduction in diet consumption after 12 hr by leaf cut-choice assay; format: functional, organism-based
Cnaphalocrocis medinalis [8] = test: Antifeedant activity against 4 hr starved fifth-instar larval stage of Cnaphalocrocis medinalis infested compound-treated rice leaves assessed as feeding deterrence index at 2 ppm after 12 hr by leaf cut-choice assay (reference value: 0.05 +/- 0.003%); format: functional

Row | Structure (SMILES) | Activity (Cnaphalocrocis medinalis [1]) [%] | Activity (Cnaphalocrocis medinalis [2]) [mg/mg/day] | Activity (Cnaphalocrocis medinalis [3]) [%] | ECI (Cnaphalocrocis medinalis [4]) [%] | Activity (Cnaphalocrocis medinalis [5]) [mg/mg/day] | Activity (Cnaphalocrocis medinalis [6]) [mg/mg/day] | Activity (Cnaphalocrocis medinalis [7]) | FDI (Cnaphalocrocis medinalis [8]) [%]
1 | CC(=O)O[C@@H]1C[C@H]2C(C)(C)C(=O)C=C[C@]2(C)[C@H]2CC[C@]3(C)C(=CC(=O)[C@@]3(O)c3ccoc3)[C@@]21C [17-HYDROXYAZADIRADIONE] | 47.217 | 0.957 | 38.657 | 18.247 | 0.4197 | 2.307 | Dose-dependent effect | 23.6
2 | C/C=C(\C)C(=O)O[C@H]1C[C@@H](OC(C)=O)[C@@]2(C(=O)OC)CO[C@H]3[C@@H](O)[C@@](C)([C@]45O[C@@]4(C)[C@@H]4C[C@H]5O[C@@H]5OC=C[C@@]54O)[C@H]4[C@]1(CO[C@]4(O)C(=O)OC)[C@@H]32 [AZADIRACHTIN A] | 52.717 | 0.187 | 12.357 | 6.507 | 0.0277 | 0.427 | Dose-dependent effect | 93.2
3 | CC1(C)C(=O)C=C[C@]2(C)[C@H]3CC[C@@]4(C)[C@H](c5ccoc5)OC(=O)[C@H]5O[C@]54[C@]3(C)[C@H](O)C[C@@H]12 [DEACETYLGEDUNIN] | 48.457 | 0.927 | 36.127 | 17.507 | 0.3857 | 2.207 | Dose-dependent effect | 23.6
4 | COC(=O)C[C@H]1[C@]2(C)C3=C(C)[C@H](c4ccoc4)C[C@H]3O[C@@H]2[C@H](O)[C@@H]2[C@]1(C)C(=O)C=C[C@@]2(C)C(=O)OC [DEACETYLNIMBIN] | 46.747 | 0.957 | 39.117 | 18.287 | 0.4247 | 2.327 | Dose-dependent effect | 21
5 | CC(=O)O[C@@H]1C[C@H]2C(C)(C)C(=O)C=C[C@]2(C)[C@H]2CC[C@@]3(C)[C@H](c4ccoc4)OC(=O)[C@H]4O[C@]43[C@@]21C [GEDUNIN] | 46.457 | 1.007 | 43.157 | 20.07 | 0.4707 | 2.357 | Dose-dependent effect | 18.8
6 | C/C=C(/C)C(=O)O[C@H]1C[C@@H](OC(C)=O)[C@@]2(C)CO[C@H]3[C@H]4O[C@@H]5C[C@@H](c6ccoc6)C(C)=C5[C@@]4(C)[C@H](CC(=O)OC)[C@]1(C)[C@@H]32 [SALANNIN] | 49.617 | 0.557 | 33.527 | 16.627 | 0.2577 | 1.557 | Dose-dependent effect | 49.6
